Here are results for 8 compounds from patent US20260083126A1, “ANTIMICROBIAL COMPOSITIONS” (AHV International B.V., priority 2022, published 2026).

In test [1] the test system is Pseudomonas aeruginosa ATCC 27853. The experiment in a line: MIC assay (growth inhibition of planktonic microorganisms). It is filed as cell-based. The conditions noted are these: for MIC50 / MIC90: Pseudomonas aeruginosa; for MIC50: ATCC27853, 24 h, read-out: P. aeruginosa MIC50; for MIC50 / P. aeruginosa MIC50: reduction of final OD600 by 50%; for MIC90: ATCC27853. The procedure: (§1) The exact weighed amount was noted and the volume of solvent to reach a 80 mM dilution calculated. Half of the volume was added first, by adding Tween 80 and let stand for 5 minutes. In a second step, the other half of the volume DMSO was added and resuspended to help the dilution process. The closed tube was inverted 5-10 times and then vortexed very thoroughly for at least 30 seconds. If after this procedure crystals were still visible, the tube was placed in a shaker at 37° C. at 150 rpm for at least 30 minutes (it is indicated if the dissolution period was longer than 2 h). […] In case of Bis(4-Chlorophenyl) thiosulfonate, a lower concentrated stock solution of 2 mM needed to be prepared. For that, the required amount of compound was weighed in and 2% v/v Tween80 and 2% v/v DMSO of the end volume of the stock solution was added to the substance. This mix was heated in a water bath set to 40° C. and occasionally shaken. When the whole amount of the substance reached dissolution, the volume was filled up with growth medium until the end volume. This 2 mM stock solution of Bis(4-Chlorophenyl) thiosulfonate was used in the MIC plate and diluted two-fold, resulting in a testing range of Bis(4-Chlorophenyl) thiosulfonate from 1 mM to 0.002 mM.
(§2) The microorganisms as indicated in Table 4 were used to inoculate a tryptic soy agar (TSA) plate and incubated overnight at 37° C. After incubation 3-5 well-isolated colonies with the same morphology were selected from the TSA plate and resuspended in 2 mL 0.9% saline solution with 3-6 glass beads and vortexed. The optical density at 600 nm (OD600) of the bacterial suspension was measured with a spectrophotometer (Evolution™ 201/220 UV-Visible Spectrophotometer, Thermo Fisher Scientific) and diluted to an OD600 of 0.0008, which resembles 10^6 CFU/mL.
(§3) The MIC assay was performed in a flat-bottom 96-microtiter plate. 50 μL of MHB-II was added into columns 2-11, and 100 μL to column 12 for sterility control. 100 μL of the 8 mM test compound solution (method 1) was added to column 1. A two-fold dilution series of the solution in MHB-II was achieved by resuspending 50 μL of the 8 mM solution from column 1 to column 2. This step was repeated until column 10. The respective concentration of Tween 80 and DMSO in column 1 was 2.5%, which is two-fold diluted throughout the plate. 50 μL of the bacterial suspension was added to column 1-11. The microtiter plates were sealed with adhesive polyethylene film for sealing microplates (Diversified Biotech) and incubated for 24 h at 37° C. After incubation the OD was measured at 600 nm with the Varioskan (Thermo Fisher Scientific). The minimal concentration which causes reduction of final OD600 of the bacterial culture by 50% (MIC50) and by 90% (MIC90) was calculated after normalization of the obtained OD values to the growth control in column 11. This assay was repeated three times in three independent experiments.
Hereafter, the stock solutions of the compounds were used in three repetitions in a minimal inhibitory concentration (MIC) assay at a 2-fold dilution range with various bacteria from the gram-positive and gram-negative group and a yeast, Candida albicans. The concentrations that show only less than 10% growth after 24 h were considered the MIC90-values, whereas the concentrations that show 50% growth after 24 h when compared to the bacterial growth control were considered the MIC50-values. Escherichia coli and Staphylococcus aureus were used as representatives for a gram-negative bacteria and gram-positive bacteria, respectively. Furthermore, the yeast C. albicans was also tested.
In an Eppendorf tube between 10-20 mg of the test compound was weighed. Hereafter, the required amount of Tween 80 was added, followed by the amount DMSO. After vigorous shaking, the dissolved and transparent dilutions were diluted 10 times with Mueller Hinton Broth (MHB) for the MIC assay. […]

Test [2] has as its system Pseudomonas aeruginosa ATCC 27853 biofilm. Put plainly: MBEC assay (48 h biofilm, CFU log reduction). The test is classed as cell-based. The following applies: 20 h treatment, 0.125-1 mM tested. Here is the method:
(§4) For the MBEC assay (method 1.3) the solutions need to be diluted to a final concentration of 2 mM in 0.9% saline solution and then further diluted to 1 mM, 0.5 mM, 0.25 mM and 0.125 mM in saline. Those dilutions were added as treatment to the 96 well plates with the grown biofilm (see method 3) (0.5 mL needed for one strain). The dilution must stay transparent.
(§5) Frozen aliquots of Staphylococcus epidermis ATCC 35984 and Pseudomonas aeruginosa ATCC 27853 were used to inoculate 20 mL of Tryptic Soy Broth (TSB) in a 100 mL Erlenmeyer flask at 37° C. and 150 rpm and incubated overnight (Infors). The OD600 of the overnight culture was measured with a spectrophotometer (Evolution™ 201/220 UV-Visible Spectrophotometer, Thermo Fisher Scientific) and diluted to an ( ) 600 of 0.2, which resembles 10^8 CFU/mL. The cell suspension of OD600=0.2 was seeded into a U-bottom-shaped 96 well plates by pipetting 100 μL per well in column 1-11, column 12 was filled with 100 μL medium as sterility control. The 96 well plates were sealed with adhesive polyethylene film for sealing microplates and incubated for 48 h at 37° C. at static conditions. After the biofilm growth phase, 100 μL of treatment solutions (method 1) were added to the vials resulting in treatment concentrations of 1 mM, 0.5 mM, 0.25 mM and 0.125 mM and with the respective concentration of Tween 80 and DMSO each at 0.63%, 0.32%, 0.16% and 0.08%. The same concentration was applied to four different wells of the same bacterial strain, resulting in four replicates for each concentration and strain. The treatment was incubated for 20 h at 37° C. at static conditions. After the treatment the supernatant was carefully removed and the well with the biofilm washed carefully for one time with 200 μL 0.9% saline solution. 200 μL saline solution was added and the biofilm was resuspended thoroughly. When fully homogenized then 20 μl, was used for the first dilution in 180 μL 0.9% saline solution, which was prepared in a second plate. This dilution was continued until dilution step 10E-5 and 100 μL of the 10E-4 and 10E-5 dilution plated on a TSA plate. The TSA plates were incubated at 37° C. for 24 h. The colonies on the plates were enumerated, the colony forming units per ml, of the dispensed biofilm and averages thereof and the log reduction in comparison with the untreated sample from the same wells plate calculated. Reduction of colony forming units goes hand in hand with the thickness of the biofilm and thus with the number bacteria that are present in the biofilm. Therefore, a significant reduction of colony forming units in the biofilm was defined at the value of log reduction >1 or more. This assay was repeated two times in two independent experiments)

Test [3] relates to Staphylococcus epidermidis ATCC 35984. The experiment in a line: MIC assay (growth inhibition of planktonic microorganisms). The test is classed as cell-based. The following applies: 24 h at 37° C., MHB-II; for MIC50 / MIC90: Staphylococcus epidermidis, ATCC35984; for MIC50 / S. epidermidis MIC50: reduction of final OD600 by 50%; for MIC50: read-out: S. epidermidis MIC50; for MIC90 / S. epidermidis MIC90: reduction of final OD600 by 90%; for MIC90: read-out: S. epidermidis MIC90. The procedure: as §1, §2, §3

Test [4] relates to Staphylococcus epidermis ATCC 35984 biofilm. The experiment in a line: MBEC assay (48 h biofilm, CFU log reduction). The following applies: 20 h treatment, 0.125-1 mM tested. It is filed as cell-based, Staphylococcus epidermidis. The procedure: as §4, §5
Setting [5] is: reduction of final OD600 by 90%, 24 h at 37° C., MHB-II, read-out: P. aeruginosa MIC90.
Setting [6] is: reduction of final OD600 by 90%, 24 h at 37° C., MHB-II.

Converted amounts (≈) assume the structure as drawn. “And” between values parts separate entries of the source, which are not always exact repeats. Equal entries are not always repeated. Where two headings read alike, the source gives them in different places. Where only a bound is given, the exact number is not on record here.

For `Clc1ccc(SSc2ccc(Cl)cc2)cc1` [Bis (4-chlorophenyl) disulfide, Bis(4-chlorophenyl) disulfide], the MIC50 (as a rule, an inhibitory concentration at the 50% level, which refers to growth in some studies and to a panel of isolates in others) in test [1] (24 h at 37° C., MHB-II) worked out at 20 µM (≈ 5.74 µg/mL); in test [3], 10 µM (≈ 2.87 µg/mL). Also, the MIC90 in test [1] (setting [5]) and in test [3] was 30 µM (≈ 8.62 µg/mL) throughout. Besides, the “P. aeruginosa MBEC mM with log reduction ≥1” value in test [2] was >1 mM. Besides, the “S. epidermidis MBEC mM with log reduction ≥1” value in test [4] is on record as >1 mM.
For `O=S(=O)(Sc1ccc(Cl)cc1)c1ccc(Cl)cc1` [Bis (4-chlorophenyl) thiosulfonate, Bis(4-chlorophenyl) thiosulfonate], the “P. aeruginosa MIC50” value in test [1] (24 h at 37° C., MHB-II) came out at 250 µM. Moreover, the “P. aeruginosa MIC90” value in test [1] (setting [6]) worked out at 2000 µM. The “P. aeruginosa MBEC mM with log reduction ≥1” value in test [2] is given as >1 mM. Further, in test [3], the “S. epidermidis MIC50” value was 30 µM and the “S. epidermidis MIC90” value amounted to 60 µM. Moreover, in test [4], the “S. epidermidis MBEC mM with log reduction ≥1” value is given as >1 mM.
For `Fc1ccc(SSc2ccc(F)cc2)cc1` [Bis (4-fluorophenyl) disulfide, Bis(4-fluorophenyl) disulfide], the MIC50 in test [1] (24 h at 37° C., MHB-II) is 125 µM (≈ 31.8 µg/mL); in test [3], 60 µM (≈ 15.3 µg/mL). In addition, the MIC90 – broadly, an inhibitory concentration at the 90% level, which refers to growth in some studies and to a panel of isolates in others – is > 4000 µM in test [1] (Example 2b, FIG. 1, no MIC90 detected in the tested range, read-out: Average MIC90 P. aeruginosa (Pa)); 250 µM (≈ 63.6 µg/mL) in test [1] (setting [5]); 60 µM (≈ 15.3 µg/mL) in test [3]. In test [1] (24 h at 37° C., MHB-II), the “P. aeruginosa MIC50” value was found to be 130 µM. Besides, the “P. aeruginosa MBEC mM with log reduction ≥1” value in test [2] was >1 mM. Further, in test [4], the “S. epidermidis MBEC mM with log reduction ≥1” value is reported as >1 mM.
As for `[O-][S+](Sc1ccc(F)cc1)c1ccc(F)cc1` (centres unmarked) [Bis (4-fluorophenyl) thiosulfinate, Bis(4-fluorophenyl) thiosulfinate], the “P. aeruginosa MIC50” value in test [1] (24 h at 37° C., MHB-II) is 1000 µM. Moreover, the “P. aeruginosa MIC90” value in test [1] (setting [6]) was determined as 4000 µM. Further, the “P. aeruginosa MBEC mM with log reduction ≥1” value in test [2] is >1 mM. Besides, in test [3], the “S. epidermidis MIC50” value was 125 µM and 130 µM; the “S. epidermidis MIC90” value is 250 µM. Moreover, the “S. epidermidis MBEC mM with log reduction ≥1” value in test [4] is >1 mM.
In the case of `O=S(=O)(Sc1ccc(F)cc1)c1ccc(F)cc1` [Bis (4-fluorophenyl) thiosulfonate, Bis(4-fluorophenyl) thiosulfonate], in test [1] (24 h at 37° C., MHB-II), the “P. aeruginosa MIC50” value turned out to be 2000 µM. Further, the “P. aeruginosa MIC90” value in test [1] (setting [6]) amounted to 2000 µM. Also, the “P. aeruginosa MBEC mM with log reduction ≥1” value in test [2] is >1 mM. In test [3], the “S. epidermidis MIC50” value worked out at 250 µM and the “S. epidermidis MIC90” value stood at 2000 µM. In addition, the “S. epidermidis MBEC mM with log reduction ≥1” value in test [4] was >1 mM.
`CC(C)SS(=O)(=O)C(C)C` [Di-isopropyl thiosulfonate]: the “P. aeruginosa MIC50” value in test [1] (24 h at 37° C., MHB-II) is 2000 µM. For the same compound, the “P. aeruginosa MIC90” value in test [1] (setting [6]) is 2000 µM. For the same compound, the “P. aeruginosa MBEC mM with log reduction ≥1” value in test [2] is >1 mM. Further, in test [3], the “S. epidermidis MIC50” value worked out at 2000 µM and the “S. epidermidis MIC90” value came out at 2000 µM. For the same compound, in test [4], the “S. epidermidis MBEC mM with log reduction ≥1” value is >1 mM.
In the case of `CCCSSCCC` [Di-n-propyl disulfide, reference compound], the MIC50 in test [1] (24 h at 37° C., MHB-II) was > 4000 µM; in test [3] it was > 4000 µM. The MIC90 in test [1] (setting [5]) and in test [3] was > 4000 µM throughout. Moreover, the “P. aeruginosa MBEC mM with log reduction ≥1” value in test [2] was >4 mM. Moreover, the “S. epidermidis MBEC mM with log reduction ≥1” value in test [4] is >1 mM.
Turning to `CCCSS(=O)(=O)CCC` [Di-n-propyl thiosulfonate, reference compound], the “P. aeruginosa MIC50” value in test [1] (24 h at 37° C., MHB-II) is 250 µM. The “P. aeruginosa MIC90” value in test [1] (setting [6]) came to 250 µM. Besides, the “P. aeruginosa MBEC mM with log reduction ≥1” value in test [2] was found to be 1 mM. In addition, in test [3], the “S. epidermidis MIC50” value is 250 µM and the “S. epidermidis MIC90” value was determined as 250 µM. The “S. epidermidis MBEC mM with log reduction ≥1” value in test [4] was found to be 0.25 mM.
